According to patent US20250025439A1, “DERIVATIVES OF NIFUROXAZIDE FOR USE IN THE TREATMENT OF MITOCHONDRIAL DISORDERS AND NEURODEGENERATIVE DISEASES” (priority 2021, published 2025):

How the values were obtained:
[1] = target: T1, ARF GTPase-activating protein GIT2 (Homo sapiens, UniProt Q14161); assay: Affinity chromatography with NFX-beads and mass spectrometry; assay type: binding; conditions: spectral counts, NFX coupled beads vs beads alone, human fibroblast extracts
T1 construct: Protein extracts from human fibroblasts were incubated with magnetic beads; endogenous in cells; host or cells: human fibroblast lysate
T1 sequence (Q14161 1-759): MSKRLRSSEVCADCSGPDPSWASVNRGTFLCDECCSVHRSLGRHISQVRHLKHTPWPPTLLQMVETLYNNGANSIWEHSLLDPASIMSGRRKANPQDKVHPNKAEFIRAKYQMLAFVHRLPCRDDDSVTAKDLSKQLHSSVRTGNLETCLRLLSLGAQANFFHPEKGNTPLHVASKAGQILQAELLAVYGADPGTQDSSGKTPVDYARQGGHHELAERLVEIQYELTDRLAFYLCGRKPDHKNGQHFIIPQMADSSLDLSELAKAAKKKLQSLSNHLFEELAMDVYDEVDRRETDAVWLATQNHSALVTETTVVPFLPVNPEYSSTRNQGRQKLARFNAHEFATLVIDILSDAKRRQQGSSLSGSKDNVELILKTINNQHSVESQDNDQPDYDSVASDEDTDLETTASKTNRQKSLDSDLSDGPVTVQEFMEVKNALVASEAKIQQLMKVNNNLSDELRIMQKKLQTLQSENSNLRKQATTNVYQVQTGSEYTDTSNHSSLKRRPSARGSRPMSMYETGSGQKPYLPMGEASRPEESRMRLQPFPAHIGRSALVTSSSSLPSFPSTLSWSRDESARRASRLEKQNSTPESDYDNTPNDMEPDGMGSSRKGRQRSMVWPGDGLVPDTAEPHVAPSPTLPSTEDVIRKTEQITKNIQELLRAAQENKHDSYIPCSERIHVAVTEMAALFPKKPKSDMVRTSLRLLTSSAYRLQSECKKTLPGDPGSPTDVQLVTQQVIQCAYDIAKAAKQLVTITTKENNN
Protocol: (§1) Fibroblasts were trypsinized and washed with PBS 1× then incubated in lysis buffer on ice during 20 minutes (Lysis buffer: Tris-HCl pH 7.5 50 mM, EDTA 2 mM, Triton X-100 0.1% supplemented with anti-protease and anti-phosphatase (Complete-Mini™—Roche). After centrifugation 15 minutes, 13 000 rpm at 4° C., supernatant was conserved and the protein concentration was determined using the Pierce BCA assay kit (Thermo Fisher Scientific).
(§2) 10 μL of magnetic beads and NFX-beads were washed three times in Bead buffer before to be resuspended 100 μL of Bead buffer (Bead buffer: Tris-HCl pH 7.5 50 mM, NaCl 150 mM, Triton X-100 0.1%, supplemented with anti-protease and anti-phosphatase (Complete-Mini™—Roche)) thanks to a magnetic rack (DynaMag-2 Ref 12321D Life Technologies). 800 μg of proteins were mixed with 100 μL of diluted beads and the final volume was set to 800 μL with Bead buffer. The proteins and the beads were incubated 30 minutes with rotation in a cold room. Using a magnetic rack, the beads were separated from the protein extract and washed three time with Bead buffer before to be resuspended in 75 μL of Laemmli2X. Laemmli with beads was put 5 minutes at 95° C. to eluate the proteins and the beads were discarded using a magnetic rack. 35 μL of the eluted proteins were subjected to SDS-PAGE and silver coloration (ProteoSilver™ Silver Stain Kit—Sigma Aldrich). Bands of interest were extracted from the gel and subjected to mass spectrometry.
(§3) Mass spectrometric identification and quantification of the pulled down proteins were performed as previously described (Shrivastava et al., EMBO, 2019, 38:e99871). The raw data were cleaned using the following pathway. First, only the proteins found to interact with the NFX coupled beads in the three replicates were kept for further analysis. […] The final proteins were then classified based on the fold chance and the p-value.
(§4) Identification of the NFX intracellular targets is a crucial step in understanding its mechanisms of action and to be able to improve its efficiency on a rational basis. To purify NFX-binding proteins, affinity chromatography purification was performed using magnetic beads. Protein extracts from human fibroblasts were incubated with magnetic beads alone or to which NFX has been covalently coupled (Scheme 1). Eluted fractions were subjected to SDS-PAGE electrophoresis and silver staining (FIG. 9A). The pattern was clearly different between eluted proteins from NFX-beads compared to those eluted form beads alone with 13 bands either appeared or were of a higher intensity with the NFX-beads (FIG. 9B). Excised bands were subjected to proteolytic digestion and mass spectrometry.

[2] = target: T2, Calcium/calmodulin-dependent protein kinase type II subunit delta (CAMK2D) (Homo sapiens, UniProt Q13557); assay: as above; assay type: binding; conditions: spectral counts, NFX coupled beads vs beads alone, human fibroblast extracts
T2 construct: Protein extracts from human fibroblasts were incubated with magnetic beads; endogenous in cells; host or cells: human fibroblast lysate
Protocol: as §1, §2, §3, §4

T2 sequence (Q13557 whole entry): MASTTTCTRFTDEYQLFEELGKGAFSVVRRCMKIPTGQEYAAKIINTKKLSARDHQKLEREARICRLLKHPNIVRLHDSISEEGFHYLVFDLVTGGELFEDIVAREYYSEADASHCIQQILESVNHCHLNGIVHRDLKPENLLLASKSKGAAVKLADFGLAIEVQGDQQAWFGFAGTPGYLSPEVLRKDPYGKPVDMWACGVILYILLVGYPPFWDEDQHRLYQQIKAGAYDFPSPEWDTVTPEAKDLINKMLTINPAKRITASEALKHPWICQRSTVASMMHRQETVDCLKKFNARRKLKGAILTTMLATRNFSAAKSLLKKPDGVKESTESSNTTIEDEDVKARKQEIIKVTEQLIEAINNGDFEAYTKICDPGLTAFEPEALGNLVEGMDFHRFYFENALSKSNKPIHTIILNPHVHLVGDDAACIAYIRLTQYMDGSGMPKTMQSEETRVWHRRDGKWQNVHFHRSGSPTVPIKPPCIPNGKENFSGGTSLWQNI

Compound: O=C(N/N=C/c1ccc([N+](=O)[O-])o1)c1ccc(O)cc1 [NFX, (E)-4-hydroxy-N′-((5-nitrofuran-2-yl)methylene)benzohydrazide]
- Fold change [1]: 433.33
- Fold change [2]: 803.33
